Data on four compounds can be found in patent US20020022652A1, “Methylnogarol compositions and uses thereof” (priority 2000, published 2002).

Where two headings read alike, the source gives them in different places.

For the assay, the system named is murine fibrosarcomas (RIF−1 cells). Type of assay: in vivo. The following applies: for Mean TVQT (± SE): RIF-1 tumors in C3H mice, paclitaxel 10 mg/kg, camptothecin 6 mg/kg, combinations with second agent 30 min after menogaril; for Mean TVQT (± SE) / Mean TVQT ± S.E.: menogaril 50 mg/kg; for Delay: median TVQT of treated group minus median of control; for Delay / TVQT/CTVQT / Median (TVQT): same doses; for Mean TVQT ± S.E.: RIF-1 tumors in female C3H mice, single i.p. injection, cisplatin 4 mg/kg, combination with cisplatin 30 min after menogaril, 4 mice per group. As for the experimental part: Transplantable experimental murine fibrosarcomas (2×10^5 RIF−1 cells) were grown intradermally in the flanks of 3 month old female C3H mice (Charles River, Holister, Calif.). When the tumors reached a volume of approximately 100 mm^3, the mice were randomly assigned to each experimental group (4 mice per group).
The chemopotentiator, menogaril, was obtained from NCI and was made to the appropriate concentration in DMSO. Cisplatin (David Bull Laboratories- Mulgrave, Australia, lot. 5201844x) was made to the appropriate concentration in water for injection. The compositions were injected systemically (i.e., intraperitoneally, i.p.), in a volume of 100 microliters. For the treatment of group 3, the chemopotentiator, menogaril, was injected 30 minutes prior to the injection of cisplatin. After treatment, the growth of the tumors was monitored three times per week by caliper measurements of three perpendicular diameters of the tumor and calculation of tumor volume from the formula: […]
The tumors were followed until they reached a size of four times their day zero treatment volume (TVQT), or up to 30 days after treatment, whichever came first. The data is expressed as the “tumor volume quadrupling time” (TVQT) mean and as the “delay.” Mean TVQT is the mean days required for individual tumors to grow to four times the tumor volume at the initial treatment day. The “delay” is the median of days required for a tumor to grow to four times the mean size of the treated group, minus the median of days required to grow to four times the mean size of the control group. The data is also expressed as the ratio of the tumor volume quadrupling time of the treated tumor over the untreated control group (TVQT/CTVQT). Increasing values of this ratio indicate increased antitumor response.
The ability of menogaril to enhance the effect of camptothecin or paclitaxel was also studied, using the same methods described in Example 1. […] For each injection, 100 microliters was injected.

Setting [1] is: Example 2, Table 4, ratio of treated group over untreated control, IP.
Setting [2] is: Example 1, Table 3, ratio of TVQT of treated group over untreated control, i.p.

Turning to `CC[C@@]1(O)C(=O)OCc2c1cc1n(c2=O)Cc2cc3ccccc3nc2-1` [Camptothecin, camptothecin], where the note is “Example 2, Table 4, IP”, the “Mean TVQT (± SE)” value amounted to 9.9 ± 0.5 days, the Delay was 1.44 and the “Median (TVQT)” value turned out to be 9.8 days. Moreover, the TVQT/CTVQT under setting [1] amounted to 1.1.
Consider `CO[C@@H]1C[C@](C)(O)Cc2cc3c(c(O)c21)C(=O)c1c(O)cc2c(c1C3=O)O[C@@H]1O[C@@]2(C)[C@H](O)[C@@H](N(C)C)[C@@H]1O` [Menogaril, 2,6-Epoxy-2H-naphthaceno[1,2-b]oxocin-9,16-dione, 4-(dimethylamino)-3,4,5,6,11,12,13,14-octahydro-3,5,8,10,13-pentahydroxy-11-methoxy-6,13-dimethyl-,(2alpha,3beta,4alpha,5beta,6alpha, 11 alpha, 13alpha)-, (P)-], for which, where the note is “Example 1, Table 3”, the “Mean TVQT ± S.E.” value is 9.1 ± 0.5 days. Also, the “Delay” value runs as follows: (Example 1, Table 3, i.p.) 3.31 days; (Example 2, Table 4, IP) 1.84. Also, the TVQT/CTVQT was 1.4 under setting [2] and 1.2 under setting [1]. Also, the “Median (TVQT)” value was found to be 9.4 days (Example 1, Table 3, i.p.) and 10.2 days (Example 2, Table 4, IP). In addition, the “Mean TVQT (± SE)” value (Example 2, Table 4, IP) is reported as 10.2 ± 0.8 days.
Take `N.N.[Cl][Pt][Cl]` [Cisplatin, cis-diamminedichloroplatinum II]: the “Mean TVQT ± S.E.” value (Example 1, Table 3) was determined as 8.4 ± 0.3 days. In addition, under “Example 1, Table 3, i.p.”, the “Delay” value worked out at 2.10 days and the “Median (TVQT)” value amounted to 8.1 days. Also, under setting [2], the TVQT/CTVQT turned out to be 1.3.
On to `CC(=O)O[C@H]1C(=O)[C@@]2(C)[C@H]([C@H](OC(=O)c3ccccc3)[C@]3(O)C[C@H](OC(=O)[C@H](O)[C@@H](NC(=O)c4ccccc4)c4ccccc4)C(C)=C1C3(C)C)[C@]1(OC(C)=O)CO[C@@H]1C[C@@H]2O` [Paclitaxel, paclitaxel], for which, where the note is “Example 2, Table 4, IP”, the “Mean TVQT (± SE)” value is 9.0 ± 0.4 days, the Delay was 0.36 and the “Median (TVQT)” value is on record as 8.7 days. Besides, under setting [1], the TVQT/CTVQT is 1.0.
